Results: patent publication US20260071220A1, “CONJUGATE OF NUCLEOTIDE ANALOG-CONTAINING DOUBLE-STRANDED RNAI ANALOG” (BaseCure Therapeutics LLC, priority 2022, published 2026)
Values joined by “and” are separate entries in the source; they are usually repeats but may differ in a detail not shown here. Equal values may be shown once. In the oligonucleotide strings, read from the 5' end, every base follows the letter of its sugar. An asterisk marks phosphorothioate; unmarked linkages are phosphodiester. Other units and linkages are bracketed, terminal groups are in braces. A string of capitals states the bases alone. {D01} = GalNAc ligand D01, attached to sense strand by a phosphodiester bond; m = 2'-O-methyl; f = 2'-fluoro

Key:
AGT mRNA = assay: Free uptake experiment of PHH cells (AGT mRNA by qPCR); type: cell-based, human; settings: 48 h
Procedure: A sample to be tested was incubated with primary human hepatocytes. The downregulation degree of AGT mRNA by the sample to be tested was evaluated.
Primary human hepatocytes (PHH), RNeasy® 96 Kit (12) (QIAGEN-74182), FastKing RT Kit (With gDNase) (Tiangen-KR116-02), TaqMan Gene Expression Assay (GAPDH, Thermo, Assay ID-Hs02786624_g1), TaqMan Gene Expression Assay (AGT, Thermo, Assay ID-Hs01586213_m1).
A conjugate of the present invention was diluted with a PBS solution until the obtained concentration was 10 times the concentration to be tested. 10 uL of siRNA was transferred to a 96-well plate. PHH cells were thawed and seeded to the 96-well plate, and the final cell density was 5.4×10^5 cells/well. The conjugate of the present invention was tested for 10 concentration points, and the highest concentration was 500 nM, with 4-fold dilution.
The cells were incubated for 48 h under the conditions of 37° C. and 5% CO2, and the state of the cells was observed using a microscope.
After the incubation was completed, the cells were lysed, all of RNA was extracted from the obtained lysate using RNeasy® 96 Kit (QIAGEN-74182), and underwent reverse transcription using FastKing RT Kit (With gDNase) (Tiangen-KR116-02) to obtain cDNA. AGT cDNA was detected by qPCR.

Transcriptome = assay: In vitro RNA sequencing study (off target risk); type: cell-based
Excerpt: Transcriptome refers to a sum of all RNA transcripted from specific tissues or cells at a certain time or state, mainly including mRNA and non-encoding RNA. Transcriptome sequencing is to study all mRNA transcripted from specific tissues or cells during a certain period based on an Illumina sequencing platform, is a basis for gene functions and structure study, and plays an important role in understanding the development of organisms and the occurrence of diseases. With the development of gene sequencing technologies and reduction in sequencing cost, RNA-seq, with its advantages of high throughput, high sensitivity and wide application range, has become a main method for transcriptome study. The RNA-seq technical process mainly includes two parts: library construction and sequencing, and biological information analysis.
RNA was extracted from tissues or cells using a standard extraction method, and subsequently serious quality control was performed on RNA samples. The quality control method was mainly achieved by Agilent 2100 bioanalyzer to precisely detect the integrity of RNA.
mRNA was obtained mainly by the following two methods: one was to utilize the structural feature that most mRNA in eukaryotes had polyA tails to enrich mRNA with polyA tails using Oligo (dT) magnetic beads; and the other one was to remove ribosomal RNA from total RNA to obtain mRNA. Subsequently, the obtained mRNA was randomly fragmented using divalent cations in NEB Fragmentation Buffer, and library construction was carried out using either an NEB ordinary library construction method or a strand specific library construction method.
NEB ordinary library construction: a first strand of a cDNA was synthesized in an M-MuLV reverse transcriptase system by using fragmented mRNA as a template and random oligonucleotides as primers. Subsequently, the RNA strand was digested using RNaseH, and a second strand of the cDNA was synthesized in a DNA polymerase I system using dNTPs as a raw material. The purified double-stranded cDNA was subjected to end repair, A tail addition and sequencing linker linkage. About 250-300 bp cDNAs were screened using AMPure XP beads and subjected to PCR amplification, and the PCR product was purified again using AMPure XP beads to finally obtain a library. A kit for library construction was NEBNext® Ultra™ RNA Library Prep Kit for Illumina®.
Strand specific library construction: a method for synthesizing the first strand of cDNA was the same as the NEB ordinary library construction method except that when the second strand was synthesized, dTTP in dNTPs was replaced by dUTP, and then end repair, A tail addition, sequencing linker linkage and length screening of cDNA were similarly carried out. Subsequently, the second strand of cDNA containing U was digested using USER enzyme followed by PCR amplification to obtain the library. […] A kit used for the library construction was NEB Next® Ultra™ Directional RNA Library Prep Kit for Illumina®.
After library construction was completed, preliminary quantification was carried out using Qubit2.0 Fluorometer. The library was diluted to 1.5 ng/uL, and subsequently the insert size of the library was detected using Agilent 2100 bioanalyzer. After the insert size met the expectation, the effective concentration of the library was accurately quantified by QRT-PCR (the effective concentration of the library was higher than 2 nM) to ensure the quality of the library.
After library inspection was qualified, different libraries were subjected to Illumina sequencing after pooling according to effective concentration and target offline data volume requirements. The basic principle of sequencing was sequencing by synthesis. Four fluorescent labeled dNTPs and DNA polymerases as well as linker primers were added in the sequenced flow cell for amplification. […]

AGT protein = assay: In vivo PD experiment of non-human primate cynomolgus monkey (plasma AGT protein); settings: for plasma AGT protein level after administration/before administration, Average: group average; for plasma AGT protein level after administration/before administration: individual animal
Excerpt: The downregulation degree of cynomolgus monkey plasma AGT by the sample to be tested was observed through a non-human primate cynomolgus monkey model highly homologous to a human in AGT gene.
2. Experimental materials: cynomolgus monkeys, 1×PBS (phosphate buffer solution), AD-85481 (US2021095290), and a conjugate of the present invention.
10 cynomolgus monkeys with the weight of 2-3 kg were purchased, and the animals were adapted to quarantine for one week after arriving at an animal room.
On Day −6, cynomolgus monkeys were divided into groups at random according to weight data, with 2 cynomolgus monkeys in each group, the AGT protein concentrations in plasmas of all the cynomolgus monkeys were detected after grouping as an experimental data baseline for each group.
Administration was performed on Day 1. Group 1 was dosed with 1×PBS; group 2 was subcutaneously injected with AD-85481 at the dose of 0.3 mpk; group 3 was subcutaneously injected with AD-85481 at the dose of 3 mpk; group 4 was subcutaneously injected with the conjugate 2 of the present invention at the dose of 0.3 mpk; group 5 was subcutaneously injected with the conjugate 2 of the present invention at the dose of 3 mpk. Blood was collected on Day 1, 2, 4, 8, 15, 22, 29, 32, 35, 43, 57, 71 after administration to detect the AGT protein concentration in plasma of each cynomolgus monkey. By comparing the AGT protein concentration in plasma after administration to the AGT protein concentration on Day −6, the relative downregulation proportion of the AGT proteins in each group of animals was obtained.
4. In the table, the data represent AGT gene expression level after administration/AGT gene expression level before administration.

Substance: Conjugate 2: Double-stranded RNAi analog against AGT, D01 GalNAc ligand on sense strand; sense SEQ ID NO: 6, antisense SEQ ID NO: 2 containing Z (sense mA*mU*fCfCmAfCfAfAmUmGmAmGmAfGmUmAmCmA-{D01}; antisense CUCACAUGUACNCUCAUUGUGGAUGACGA; antisense: chemistry not given here; antisense strand modified, includes nucleotide analog Z, further chemistry not fully specified)
- Emax (remaining AGT mRNA) (AGT mRNA): 5%
- EC50 (AGT mRNA; AGT mRNA, read-out: Absolute EC50): 197 pM
- Log (concentration) (AGT mRNA; log of the absolute EC50 in nM): −0.705
- Downregulate Average (Transcriptome; number of downregulated genes, average): 658
- Downregulate N = 1 (Transcriptome; number of downregulated genes, replicate 1): 1006
- Downregulate N = 2 (Transcriptome; number of downregulated genes, replicate 2): 309
- Upregulate Average (Transcriptome; number of upregulated genes, average): 722
- Upregulate N = 1 (Transcriptome; number of upregulated genes, replicate 1): 1033
- Upregulate N = 2 (Transcriptome; number of upregulated genes, replicate 2): 410
- Total Average (Transcriptome; total regulated genes, average): 1379
- Total N = 1 (Transcriptome; total regulated genes, replicate 1): 2039
- Total N = 2 (Transcriptome; total regulated genes, replicate 2): 719
- plasma AGT protein level after administration/before administration, Average (AGT protein; 0.3 mg/kg single s.c., Day 22 vs Day -6): 25.72%
- plasma AGT protein level after administration/before administration, Average (AGT protein; 0.3 mg/kg single s.c., Day 71 vs Day -6): 51.76%
- plasma AGT protein level after administration/before administration, Average (AGT protein; 3 mg/kg single s.c., Day 22 vs Day -6): 2.47%
- plasma AGT protein level after administration/before administration, Average (AGT protein; 3 mg/kg single s.c., Day 71 vs Day -6): 9.88%
- plasma AGT protein level after administration/before administration (AGT protein; 0.3 mg/kg single s.c., Day 22 vs Day -6, 0.3 mg/kg): 28.47% and 22.96%
- plasma AGT protein level after administration/before administration (AGT protein; 0.3 mg/kg single s.c., Day 71 vs Day -6, 0.3 mg/kg): 55.17% and 48.35%
- plasma AGT protein level after administration/before administration (AGT protein; 3 mg/kg single s.c., Day 22 vs Day -6, 3 mg/kg): 0.84% and 4.09%
- plasma AGT protein level after administration/before administration (AGT protein; 3 mg/kg single s.c., Day 71 vs Day -6, 3 mg/kg): 10.84% and 8.92%
